Reference: US6274590A, “Method of treating skin related conditions” (G. D. Searle & Co., priority 2000, dated 2001)
pIC50: −log10 of the molar value.

What was measured:
[1] = reported in cited literature or patents; cited from earlier work
[2] = tested on: prostaglandin synthetase; settings: U.S. Pat. No. 4,820,827; cited from earlier work
[3] = tested on: COX II enzyme; settings: J. Biol. Chem., 268, 6610 (1993); cited from earlier work
[4] = tested on: carrageenan-induced hyperalgesic foot withdrawal; assay: Rat Carrageenan-induced Analgesia Test; format: in vivo, rat (male Sprague-Dawley); settings: oral, 3 h after carrageenan
Procedure: (§1) The carrageenan foot edema test was performed with materials, reagents and procedures essentially as described by Winter, et al., (Proc. Soc. Exp. Biol. Med., 111, 544 (1962) Male Sprague-Dawlev rats were selected in each group so that the average body weight was as close as possible. Rats were fasted with free access to water for over sixteen hours prior to the test. The rats were dosed orally (1 mL) with compounds suspended in vehicle containing 0.5% methylcellulose and 0.025% surfactant, or with vehicle alone. one hour later a subplantar injection of 0.1 mL of 1% solution of carrageenan/sterile 0.9% saline was administered and the volume of the injected foot was measured with a displacement plethysmometer connected to a pressure transducer with a digital indicator. Three hours after the injection of the carrageenan, the volume of the foot was again measured. The average foot swelling in a group of drug-treated animals was compared with that of a group of placebo-treated animals and the percentage inhibition of edema was determined (Otterness and Bliven, Laboratory Models for Testing NSAIDs, in Non-steroidal Anti-Inflammatory Drugs, (J. Lombardino, ed. 1985)).
The analgesia test using rat carrageenan was performed with materials, reagents and procedures essentially as described by Hargreaves, et al., (Pain, 32, 77 (1988)). Male Sprague-Dawley rats were treated as previously described, for the Carrageenan Foot Pad Edema test. Three hours after the injection of the carrageenan, the rats were placed in a special plexiglass container with a transparent floor having a high intensity lamp as a radiant heat source, positionable under the floor. After an initial twenty minute period, thermal stimulation was begun on either the injected foot or on the contralateral uninjected foot. […] The time until the rat withdraws its foot was then measured. The withdrawal latency in seconds was determined for the control and drug-treated groups, and percent inhibition of the hyperalgesic foot withdrawal determined.

[5] = tested on: carrageenan foot edema; assay: Rat Carrageenan Foot Pad Edema Test; format: in vivo, rat (male Sprague-Dawley); settings: @ 10 mg/kg body weight, oral, 3 h after carrageenan
Procedure: as §1

[6] = molecular target: T1, Murine COX I (Mus musculus, UniProt P22437); assay: COX I activity in vitro (PGE2 ELISA, recombinant enzyme); format: biochemical; settings: arachidonic acid 10 μM, read-out: Murine COX I ID50
T1 construct: A 2.0 kb fragment containing the coding region; made in house; host or cells: SF9 insect cells (recombinant baculovirus, pVL1393)
T1 sequence (P22437 27-602): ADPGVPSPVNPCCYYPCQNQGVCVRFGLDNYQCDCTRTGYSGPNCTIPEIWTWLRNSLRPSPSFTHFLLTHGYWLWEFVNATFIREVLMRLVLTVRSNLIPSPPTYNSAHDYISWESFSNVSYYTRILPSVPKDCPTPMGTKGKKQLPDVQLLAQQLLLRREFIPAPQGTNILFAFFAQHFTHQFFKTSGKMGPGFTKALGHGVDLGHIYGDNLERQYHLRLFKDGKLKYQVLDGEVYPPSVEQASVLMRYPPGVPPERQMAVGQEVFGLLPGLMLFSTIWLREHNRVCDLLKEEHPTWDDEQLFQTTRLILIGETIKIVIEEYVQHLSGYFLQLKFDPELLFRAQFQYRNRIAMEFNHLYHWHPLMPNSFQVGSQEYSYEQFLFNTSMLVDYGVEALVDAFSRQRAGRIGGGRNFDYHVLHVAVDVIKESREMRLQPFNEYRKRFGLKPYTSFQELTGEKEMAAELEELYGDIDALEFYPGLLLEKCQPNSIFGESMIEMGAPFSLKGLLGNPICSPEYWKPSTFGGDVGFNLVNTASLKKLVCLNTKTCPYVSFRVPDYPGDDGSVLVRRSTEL
Procedure: (§2) A 2.0 kb fragment containing the coding region of either human or murine COX-I or human or murine COX-II was cloned into a BamH1 site of the baculovirus transfer vector pVL1393 to generate the baculovirus transfer vector. Recombinant baculoviruses were isolated by transfecting 4 μg of baculovirus transfer vector DNA into SF9 cells (2×10e8) along with 200 ng of linearized baculovirus plasmid DNA by the calcium phosphate method. Recombinant viruses were purified by three rounds of plaque purification and high titer (10E7-10E8 pfu/ml) stocks of virus were prepared. For large scale production, SF9 insect cells were infected in 10 liter fermentors (Bioprocess group) 0.5×10^6 /ml) with the recombinant baculovirus stock such that the multiplicity of infection was 0.1. […] The homogenate was centrifuged at 10,000×G for 30 minutes, and the resultant supernatant was stored at -80° C. before being assayed for COX activity.
(§3) COX activity was assayed as PGE2 formed/μg protein/time using an ELISA to detect the prostaglandin released. CHAPS-solubilized insect cell membranes containing the appropriate COX enzyme were incubated in a potassium phosphate buffer (50 mM, pH 8.0) containing epinephrine, phenol, and heme with the addition of arachidonic acid (10 μM). […] The PGE2 formed was measured by standard ELISA technology (Cayman Chemical).

[7] = molecular target: T2, Murine COX II (Mus musculus, UniProt Q05769); assay: COX II activity in vitro (PGE2 ELISA, recombinant enzyme); format: biochemical; settings: arachidonic acid 10 μM, read-out: Murine COX II ID50
T2 construct: A 2.0 kb fragment containing the coding region; made in house; host or cells: SF9 insect cells (recombinant baculovirus, pVL1393)
T2 sequence (Q05769 18-604): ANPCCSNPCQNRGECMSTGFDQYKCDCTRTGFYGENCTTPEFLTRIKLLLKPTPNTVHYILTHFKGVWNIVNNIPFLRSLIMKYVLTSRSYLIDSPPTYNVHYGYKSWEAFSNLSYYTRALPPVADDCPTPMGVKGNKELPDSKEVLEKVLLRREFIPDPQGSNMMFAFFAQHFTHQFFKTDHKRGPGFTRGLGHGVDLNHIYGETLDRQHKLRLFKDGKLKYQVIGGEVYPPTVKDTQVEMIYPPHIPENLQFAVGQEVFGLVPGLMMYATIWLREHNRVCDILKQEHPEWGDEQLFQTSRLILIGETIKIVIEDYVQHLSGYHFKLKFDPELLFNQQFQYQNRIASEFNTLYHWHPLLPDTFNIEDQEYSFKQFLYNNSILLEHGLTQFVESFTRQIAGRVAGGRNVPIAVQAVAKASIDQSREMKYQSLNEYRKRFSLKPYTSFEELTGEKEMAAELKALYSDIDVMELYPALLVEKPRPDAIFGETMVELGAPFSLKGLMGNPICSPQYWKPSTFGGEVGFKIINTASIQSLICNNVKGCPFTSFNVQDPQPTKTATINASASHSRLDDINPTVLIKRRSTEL
Procedure: as §2, §3

[8] = Gen. Pharmac., 24, 105 (1993); cited from earlier work

In the case of `CSc1ccc(-c2sc(Br)cc2-c2ccc(F)cc2)cc1` [5-bromo-2-(4-methylthiophenyl)-3-(4-fluorophenyl)thiophene], the antiinflammatory activity [1] is given as “antiinflammatory” and the “prostaglandin synthetase inhibitory activity” value [2] is given as “prostaglandin synthetase inhibitory activity”.

For `COc1ccc2cc(CC(=O)O)ccc2c1` [6-methoxy-2-napthylacetic acid], the “inhibition of the COX II enzyme” value [3] is listed as “selectively inhibit the COX II enzyme”.

For `CS(=O)(=O)c1ccc(-c2cscc2-c2ccc(F)cc2)cc1` [Example 1, 3-(4-Methylsulfonylphenyl)-4-(4-fluorophenyl)thiophene], the “ANALGESIA % Inhibition” value ([4]; @ 20 mg/kg body weight) was 8%.

In the case of `CS(=O)(=O)c1ccc(-c2csc(Br)c2-c2ccc(F)cc2)cc1` [Example 2, 4-(4-Methylsulfonylphenyl)-3-(4-fluorophenyl)-2-bromothiophene], the “RAT PAW EDEMA % Inhibition” value [5] was 30% and the “ANALGESIA % Inhibition” value ([4]; @3 mpk) was 0%.

`CS(=O)(=O)c1ccc(-c2c(Br)sc(Br)c2-c2ccc(F)cc2)cc1` [Example 3, 4-(4-Methylsulfonylphenyl)-3-(4-fluorophenyl)-2,5-dibromothiophene] showed a pIC50 [6] of 4.00.

For `COc1ccc(-c2cscc2-c2ccc(OC)cc2)cc1` [Example 4, 3,4-Bis(4-methoxyphenyl)thiophene], the “RAT PAW EDEMA % Inhibition” value [5] was 22%.

With `CCOC(=O)c1sc(C(=O)O)c(-c2ccc(F)cc2)c1-c1ccc(S(C)(=O)=O)cc1` [Example 8, 2-Ethoxycarbonyl-4-(4-fluorophenyl)-3-(4-methanesulfonylphenyl)-thienyl-5-carboxylic acid] the pIC50 [6] was < 4.00 and the pIC50 [7] was 5.26.

In the case of `CS(=O)(=O)c1ccc(-c2cscc2-c2ccc(F)nc2)cc1` [Example 14], the “RAT PAW EDEMA % Inhibition” value [5] was 30% and the “ANALGESIA % Inhibition” value ([4]; @ 20 mg/kg body weight) was 28%.

In the case of `Cc1cc(F)ccc1-c1cscc1-c1ccc(S(C)(=O)=O)cc1` [Example 15], the “RAT PAW EDEMA % Inhibition” value [5] was 20%.

In the case of `CS(=O)(=O)Nc1ccc([N+](=O)[O-])cc1OC1CCCCC1` [N-(2-cyclohexyloxy-4-nitrophenyl)methanesulfonamide], the antiinflammatory activity [1] is listed as “antiinflammatory” and the gastric side effects [8] is listed as “lacks gastric side effects”.

For `CCOC(=O)CCc1scc(-c2ccccc2)c1-c1ccccc1` [ethyl 3,4-diphenylthiophene-2-propionate], the antiinflammatory activity [1] is listed as “antiinflammatory activity”.
